From patent publication US8722923B2, “Conjugates for treating neurodegenerative diseases and disorders” (Ramot at Tel-Aviv University Ltd., priority 2008, dated 2014)
Entries after “also recorded” stand apart in the source; their conditions may differ. Structures can show the parent of a compound that is named as a salt.

Tests used:
[1] = test system: MPTP acute model mice; experiment: Experiment 1: open field test, MPTP acute model (AN-490); assay type: in vivo, C57/BL/6J mice; settings: for motility / motor activity in open field: MPTP treated mice, L-DOPA 25 mg/kg or AN-490 67.5 mg/kg by oral gavage, days 3, 6, 8, 16
Experimental: The MPTP neurotoxin was administered on day 0, with 4 IP injections (each injection contained 20 mg/kg, 5 ml/kg) in saline. The various treatments or saline were administered on days 0, 1, 2, 3, 6, 7, 13 and 16. Each group of mice (n=6) was subjected, on days 3, 6, 8 and 16, to the open field test, and the following parameters were scored: the distance moved (FIGS. 2A and 2B), velocity (FIGS. 2C and 2D), time spent immobile (FIGS. 2E and 2F) and time spent in a high level of mobility (FIGS. 2G and 2H; strong mobility) during a period of 20 minutes. FIGS. 2A, 2C, 2E and 2G present the data obtained for the control mice, mice treated with L-DOPA and mice treated with AN-490. FIGS. 2B, 2D, 2F and 2H present the data obtained for control mice or mice treated with MPTP, MPTP with L-DOPA and MPTP with AN-490.
Acute model: On day 1, C57/BL mice received 4× […] injections of 20 mg/kg MPTP-HCl (Sigma), dissolved in saline solution, at 2 hours intervals.
The open field test measures behavioral responses, locomotor activity, hyperactivity, and exploratory behaviors. Open field test is also used as a measure of anxiety. Mice tend to avoid brightly illuminated, novel, open spaces, so the open field environment acts as an anxiogenic stimulus and allows for measurement of anxiety-induced locomotor activity and exploratory behaviors. The apparatus for the open field test is a square (0.5×0.5 meter) made of white melamine. All activities were recorded by a video camera mounted above the open field and scored in real-time by a motion-recognition software package (Noldus, Holland) that detects and analyzes the movements of the animals. The video image of the open field arena was partitioned into equal-size squares zone. Total distance, average speed, rearing/elongation behavior, and time spent in various parts of the field (e.g. the border areas vs. mid-area) were measured. Testing was carried out in a temperature, noise and light controlled room.

[2] = Hygroscopicity of acid addition salts; assay type: physicochemical; settings: acid addition salts as isolated
Description: The hydrochloride salts of Compounds 6, 8a, 11, 13, 14, 16, 18 and 21 were identified as hygroscopic. […] The basis for this assumption was that the addition salt of an aromatic acid would be less hygroscopic than that of the corresponding hydrochloric acid addition salt. Thus, the butyl ester, Compound 20 was Boc-deprotected with 3 equivalents of benzenesulfonic acid in […].

[3] = test system: MPTP sub-acute model mice; experiment: Experiment 2: observed vitality signs (level of motion, fur appearance), MPTP sub-acute model; assay type: in vivo, C57/BL/6J mice; on Fur, observer 1: key: Split fur +; Shiny fur +++; on Fur, observer 2: key: Split fur +; Shiny fur +++; on Fur, observer 3: key: Split fur +; Shiny fur +++; on Fur, observer 4: key: Split fur +; Shiny fur +++; on Vitality, observer 1: key: slow motions +; normal motion +++; on Vitality, observer 2: key: slow motions +; normal motion +++; on Vitality, observer 3: key: slow motions +; normal motion +++; on Vitality, observer 4: key: slow motions +; normal motion +++
Description: FIG. […] 6 hereinabove. Six independent observers estimated the level of mice vitality by the level of motion of the mice (light purple, marked vitality) and fur appearance (dark purple). The results are an average of the observers' reports.

[4] = test system: MPTP sub-acute model mice; experiment: Experiment 2: tyrosine hydroxylase immunostaining of striatum and substantia nigra, MPTP sub-acute model; assay type: in vivo, C57/BL/6J mice; settings: GABA 18.4 mg/kg, L-DOPA 30 mg/kg + GABA 18.4 mg/kg, AN-490 81 mg/kg per os, days 29-30
Experimental: Shown are microphotograph of the striatum and substantia-nigra of mice receiving saline (FIG. 8A, Naive), MPTP+saline (FIG. 8B, MPTP) MPTP+GABA.HCl 18.4 mg/kg (FIG. 8C, MPTP+GABA), MPTP+L-DOPA 30 mg/kg (FIG. 8D, MPTP+DOPA), MPTP+L-DOPA 30 mg/kg+GABA 18.4 mg/kg (FIG. 8E, MPTP+Dopa+GABA) and MPTP+AN-490 81 mg/kg (FIG. 8F, MPTP+AN490). Paraffin-embedded horizontal sections of the stratium and substantia nigra were stained with hematoxylan and Tyrosine Hyroxylase antibodies. The magnification is ×100 and in the insert ×200.
Animals under deep anesthesia were perfused through the aorta with phosphate-buffered saline (PBS), followed by a cold fixative consisting of 4% paraformaldehyde, 0.35% glutaraldehyde and 0.2% picric acid in phosphate buffer. After perfusion, the brain were removed and fixed in 4% paraformaldehyde for 24 hours, washed with PBS, dehydrated in increasing alcohol concentrations and embedded in paraffin. Paraffin-embedded tissues were processed as described [Rephaeli et al. Int J Cancer. 2005 Aug. 20; 116:226-35]. The avidin-biotin nonspecific binding was prevented by a blocking kit according to the manufacturer's protocol (Vector, USA). The sections were further incubated at 4° C. overnight with the primary antibody mouse monoclonal tyrosine hydroxylase (Visionbiosystem, Newcastle, UK, diluted 1:50). The secondary antibody was biotin conjugated goat anti-mouse IgG (Santa Cruz). Slides were then stained with ABC peroxidase system, developed with diaminobenzidine (DAB), chromogene substrate (Vector Laboratories, Inc. The slides were examined using an Olympus BX52 light microscope and images were taken with Olympus DP50 digital camera system. Images were analyzed by the ImagePro Plus 5.1 software. At least 12 different fields in each experimental group were analyzed. The Mean density±SEM was calculated for the striatum and the mean cell number±SEM was calculated for the SN.

[5] = test system: MPTP acute model mice; experiment: Experiment 3: tyrosine hydroxylase immunohistochemistry of striatum and substantia nigra, MPTP acute model; assay type: in vivo, C57/BL/6J mice; settings: overall conclusion
Experimental: FIG. 13 presents a bar graph showing the effect of BL-1023* administration on the neuronal density in the stratium, as assessed from Tyrosine Hydroxylase staining. Mice were administered the following treatments: saline (control), MPTP+saline (MPTP), MPTP+L-DOPA 30 mg/kg (MPTP+L-DOPA), MPTP+L-DOPA 30 mg/kg+GABA 18.4 mg/kg (MPTP+L-DOPA+GABA), MPTP+BL1023* 48.4 mg/kg (denoted MPTP+1023 30) and MPTP+BL-1023* 24.2 mg/kg (denoted MPTP+BL1023 15). The MPTP neurotoxin was administered on day 0, with 4 IP injections (each injection contained 20 mg/kg, 5 ml/kg) in saline. The various treatments or saline were administered on day 7, 9, 11 and 13 (total of 4 treatments). Three mice, from each treatment group, and four mice from the control group, were sacrificed on day 15 and subjected to immunohystochemistry for tyrosine hydroxylase of the stratium according to the protocol described in the Examples section hereinbelow. The intensity of Tyrosine Hyroxylase (TH) staining, in the striatum of the treated mice is presented as the average of Intensity Optical Density (IOD) and SE obtained for the total stained area.
FIG. 15 presents a bar graph showing the effect of BL-1023* administration on the neuronal density in the substantia nigra, as assessed from Tyrosine Hydroxylase staining. […]

[6] = compared with other esters such as the ethyl or octyl esters; cited from earlier work
[7] = listed as Compound 21, tri-hydrochloride
[8] = MPTP+AN-490 67.5 mg/kg, compared to the other tested groups
[9] = MPTP sub-acute model, per os treatment

Compound: CCCCOC(=O)[C@@H](N)Cc1ccc(OC(=O)CCCN)c(OC(=O)CCCN)c1 (as salt: hydrochloride) [AN-490, Butyl-2-amino-3-(3,4-phenyl-di[4-aminobutanoate])propanoate tri-hydrochloride]
- melting point: 175 to 176 °C

Compound: CCCCOC(=O)C(Cc1ccc(O)c(O)c1)NC(=O)CCCN (stereo not shown) (as salt: hydrochloride) [BL-1023*, Butyl-2-(4-Aminobutanamide)-3-(3,4-dihydroxyphenyl)propanoate hydrochloride]
- melting point: 77 °C

Compound: CCCCOC(=O)C(Cc1ccc(OC(=O)CCCN)c(OC(=O)CCCN)c1)NC(=O)CCCN (stereo not shown) (as salt: hydrochloride) [Compound 18]
- melting point: 74 to 75 °C

Compound: CCCCOC(=O)[C@@H](N)Cc1ccc(OC(=O)CCCN)c(OC(=O)CCCN)c1 [AN-490, Butyl-2-amino-3-(3,4-phenyl-di[4-aminobutanoate])propanoate tri-hydrochloride]
- motility / motor activity in open field [1, 7]: significant increase in motility
- motility / motor activity in open field ([1]; tri-hydrochloride): continuous increase in motor activity
- strong mobility in open field [1, 8]: highly mobile
- time spent immobile in open field [1, 8]: immobile for a short time
- velocity in open field [1, 8]: highest velocity
- hygroscopicity [2]: hygroscopic
- Fur, observer 1 [3, 9]: +
- Fur, observer 2 [3, 9]: +
- Vitality, observer 1 [3, 9]: +++
- Vitality, observer 2 [3, 9]: +++
- Vitality, observer 3 [3, 9]: +++
- Vitality, observer 4 [3, 9]: +++
- vitality signs (fur appearance) ([3]; MPTP+AN-490 81 mg/kg per os): reduced vitality signs
- TH staining in the substantia nigra and striatum (IHC) [4, 7]: enhanced neuronal density
- TH staining in the substantia nigra and striatum (IHC) ([4]; tri-hydrochloride): protection or restoration of the normal morphology; also recorded: TH protective activity

Compound: COC(=O)[C@@H](N)Cc1ccc(O)c(O)c1.Cl [Compound 6, L-DOPA methyl ester hydrochloride]
- hygroscopicity [2]: hygroscopic

Compound: COC(=O)C(Cc1ccc(O)c(O)c1)NC(=O)CCCN.Cl (stereo not shown) [Compound 8a, methyl-2-(4-aminobutanamide)-3-(3,4-dihydroxyphenyl)propanoate hydrochloride]
- hygroscopicity [2]: hygroscopic

Compound: COC(=O)C(N)Cc1ccc(OC(=O)CCCN)c(OC(=O)CCCN)c1.Cl (stereo not shown) [Compound 11, methyl-2-amino-3-(3,4-phenyl-di-[4-aminobutanoate])propanoate-trihydrochloride]
- hygroscopicity [2]: hygroscopic
- melting point: 185 °C

Compound: COC(=O)C(Cc1ccc(OC(=O)CCCN)c(OC(=O)CCCN)c1)NC(=O)CCCN.Cl (stereo not shown) [Compound 13]
- hygroscopicity [2]: hygroscopic
- melting point: 87 °C

Compound: CCCCOC(=O)C(N)Cc1ccc(O)c(O)c1.Cl (stereo not shown) [Compound 14, Butyl-2-amino-3-(3,4-dihydroxyphenyl)propanoate hydrochloride]
- hygroscopicity [2]: hygroscopic

Compound: CCCCOC(=O)C(Cc1ccc(OC(=O)CCCN)c(OC(=O)CCCN)c1)NC(=O)CCCN (stereo not shown) [Compound 18]
- hygroscopicity [2]: hygroscopic

Compound: NCCCC(=O)O [GABA, 4-amino-butyric acid]
- protection of TH positive cells [5]: protect the TH positive cells
- Fur, observer 1 [3, 9]: +++
- Fur, observer 3 [3, 9]: +++
- Fur, observer 4 [3, 9]: +++
- Vitality, observer 1 [3, 9]: +++
- Vitality, observer 2 [3, 9]: +++
- Vitality, observer 3 [3, 9]: +++
- Vitality, observer 4 [3, 9]: +++
- TH staining in the substantia nigra and striatum (IHC) [4]: protection or restoration of the normal morphology

Compound: CCCCOC(=O)[C@@H](N)Cc1ccc(O)c(O)c1 [L-DOPA butyl ester]
- skin permeability [6]: better skin permeability

Compound: Butyl-2-amino-3-(3,4-phenyl-di[4-aminobutanoate])propanoate tri-benzenesulfonate salt [Compound 22]
- hygroscopicity [2]: much less hygroscopic
